Drawing on patent US12065442B2, “Tropomyosin receptor kinase (TRK) degradation compounds and methods of use” (Cullgen (Shanghai), Inc., priority 2018, dated 2024), this text covers IC50 for 14 molecules.

pIC50: −log10 of the molar value.

Usually pIC50 stands for the negative decadic logarithm of the IC50, by convention in mol/L.

For the first test, the system named is KM12 cells. The experiment in a line: Cell viability assay (CellTiter-Glo) in KM12 cells. The class given is cell-based. Conditions: Homo sapiens, 72 h; Table 2; KM12 cell viability, CellTiter-Glo, 3 days; read-out: IC50. A general note: In ATP-based viability assays light output follows the ATP content of the culture.
As for `Cc1ncsc1-c1ccc(CNC(=O)[C@@H]2C[C@@H](O)CN2C(=O)[C@@H](NC(=O)CCOCCOCCC(=O)N2CCN(c3cccc(-c4cnc5ccc(N6CCC[C@@H]6c6cccc(F)c6)nn45)n3)CC2)C(C)(C)C)cc1` [CPD-020, (2S,4R)-1-((S)-2-(3-(2-(3-(4-(6-(6-((R)-2-(3-Fluorophenyl)pyrrolidin-1-yl)imidazo[1,2-b]pyridazin-3-yl)pyridin-2-yl)piperazin-1-yl)-3-oxopropoxy)ethoxy)propanamido)-3,3-dimethylbutanoyl)-4-hydroxy-N-(4-(4-methylthiazol-5-yl)benzyl)pyrrolidine-2-carboxamide], the pIC50 is 6.70.
For `Cc1ncsc1-c1ccc(CNC(=O)[C@@H]2C[C@@H](O)CN2C(=O)[C@@H](NC(=O)CCCCCC(=O)N2CCN(c3cccc(-c4cnc5ccc(N6CCC[C@@H]6c6cccc(F)c6)nn45)n3)CC2)C(C)(C)C)cc1` [CPD-004, (2S,4R)-1-((S)-2-(7-(4-(6-(6-((R)-2-(3-Fluorophenyl)pyrrolidin-1-yl)imidazo[1,2-b]pyridazin-3-yl)pyridin-2-yl)piperazin-1-yl)-7-oxoheptanamido)-3,3-dimethylbutanoyl)-4-hydroxy-N-(4-(4-methylthiazol-5-yl)benzyl)pyrrolidine-2-carboxamide], the pIC50 was 6.75.
On the same count and under the same terms, the figure for `O=C1CCC(N2C(=O)c3cccc(NCCOCCOCCOCCOCCC(=O)N4CCN(c5cccc(-c6cnc7ccc(N8CCC[C@@H]8c8cccc(F)c8)nn67)n5)CC4)c3C2=O)C(=O)N1` (stereo partly drawn) [CPD-021, 2-(2,6-Dioxopiperidin-3-yl)-4-((15-(4-(6-(6-((R)-2-(3-fluorophenyl)pyrrolidin-1-yl)imidazo[1,2-b]pyridazin-3-yl)pyridin-2-yl)piperazin-1-yl)-15-oxo-3,6,9,12-tetraoxapentadecyl)amino)isoindoline-1,3-dione] is 7.56; for `Cc1ncsc1-c1ccc(CNC(=O)[C@@H]2C[C@@H](O)CN2C(=O)[C@@H](NC(=O)CCCCCCCCC(=O)N2CCN(c3cccc(-c4cnc5ccc(N6CCC[C@@H]6c6cccc(F)c6)nn45)n3)CC2)C(C)(C)C)cc1` [CPD-017, (2S,4R)-1-((S)-2-(10-(4-(6-(6-((R)-2-(3-Fluorophenyl)pyrrolidin-1-yl)imidazo[1,2-b]pyridazin-3-yl)pyridin-2-yl)piperazin-1-yl)-10-oxodecanamido)-3,3-dimethylbutanoyl)-4-hydroxy-N-(4-(4-methylthiazol-5-yl)benzyl)pyrrolidine-2-carboxamide] it is 6.84; for `Cc1ncsc1-c1ccc(CNC(=O)[C@@H]2C[C@@H](O)CN2C(=O)[C@@H](NC(=O)CCCC(=O)N2CCN(c3ccc(C(=O)Nc4n[nH]c5ccc(Cc6cc(F)cc(F)c6)cc45)c(NC4CCOCC4)c3)CC2)C(C)(C)C)cc1` [CPD-036, (2S,4R)-1-((S)-2-(5-(4-(4-((5-(3,5-Difluorobenzyl)-1H-indazol-3-yl)carbamoyl)-3-((tetrahydro-2H-pyran-4-yl)amino)phenyl)piperazin-1-yl)-5-oxopentanamido)-3,3-dimethylbutanoyl)-4-hydroxy-N-(4-(4-methylthiazol-5-yl)benzyl)pyrrolidine-2-carboxamide] it is 6.52.

The same test, now with this note: Homo sapiens, 72 h; Table 3; KM12 cell viability, CellTiter-Glo, 3 days; read-out: IC50.
On to `O=C1CCC(N2C(=O)c3ccc(NCCOCCOCCC(=O)N4CCN(c5ccc(C(=O)Nc6n[nH]c7ccc(Cc8cc(F)cc(F)c8)cc67)c(NC6CCOCC6)c5)CC4)cc3C2=O)C(=O)N1` (centres unmarked) [TR-141, N-(5-(3,5-Difluorobenzyl)-1H-indazol-3-yl)-4-(4-(3-(2-(2-((2-(2,6-dioxopiperidin-3-yl)-1,3-dioxoisoindolin-5-yl)amino)ethoxy)ethoxy)propanoyl)piperazin-1-yl)-2-((tetrahydro-2H-pyran-4-yl)amino)benzamide], for which the pIC50 was 8.59.
On the same count and under the same terms, to `O=C1CCC(N2C(=O)c3ccc(NCCC(=O)N4CCN(c5ccc(C(=O)Nc6n[nH]c7ccc(Cc8cc(F)cc(F)c8)cc67)c(NC6CCOCC6)c5)CC4)cc3C2=O)C(=O)N1` (centres unmarked) [TR-145, N-(5-(3,5-Difluorobenzyl)-1H-indazol-3-yl)-4-(4-(3-((2-(2,6-dioxopiperidin-3-yl)-1,3-dioxoisoindolin-5-yl)amino)propanoyl)piperazin-1-yl)-2-((tetrahydro-2H-pyran-4-yl)amino)benzamide] belongs 8.51.
With `O=C1CCC(N2C(=O)c3ccc(NCCOCCOCCOCCOCCOCCC(=O)N4CCN(c5ccc(C(=O)Nc6n[nH]c7ccc(Cc8cc(F)cc(F)c8)cc67)c(NC6CCOCC6)c5)CC4)cc3C2=O)C(=O)N1` (centres unmarked) [TR-137, N-(5-(3,5-Difluorobenzyl)-1H-indazol-3-yl)-4-(4-(1-((2-(2,6-dioxopiperidin-3-yl)-1,3-dioxoisoindolin-5-yl)amino)-3,6,9,12,15-pentaoxaoctadecan-18-oyl)piperazin-1-yl)-2-((tetrahydro-2H-pyran-4-yl)amino)benzamide], the pIC50 is 8.60.
The same measure, in the same setting: the figure for `O=C1CCC(N2Cc3cc(C#CC(=O)N4CCN(c5cccc(-c6cnc7ccc(N8CCC[C@@H]8c8cccc(F)c8)nn67)n5)CC4)ccc3C2=O)C(=O)N1` (some centres unmarked) [TR-203] is 8.43.

The test is the same for the next values; noted with them: Homo sapiens, 72 h; Table 4; KM12 cell viability, CellTiter-Glo, 3 days; read-out: IC50.
On to `Cn1c(=O)n(C2CCC(=O)NC2=O)c2cccc(C#CCCN3CCN(c4cccc(-c5cnc6ccc(N7CCC[C@@H]7c7cccc(F)c7)nn56)n4)CC3)c21` (stereo partly drawn) [TR-239, 3-(4-(4-(4-(6-(6-((R)-2-(3-fluorophenyl)pyrrolidin-1-yl)imidazo[1,2-b]pyridazin-3-yl)pyridin-2-yl)piperazin-1-yl)but-1-yn-1-yl)-3-methyl-2-oxo-2,3-dihydro-1H-benzo[d]imidazol-1-yl)piperidine-2,6-dione], for which the pIC50 is 7.34.
The same measure, in the same setting: to `Cn1c(=O)n(C2CCC(=O)NC2=O)c2ccc(OCCN3CCN(c4cccc(-c5cnc6ccc(N7CCC[C@@H]7c7cccc(F)c7)nn56)n4)CC3)cc21` (stereo partly drawn) [TR-246, 3-(5-(2-(4-(6-(6-((R)-2-(3-fluorophenyl)pyrrolidin-1-yl)imidazo[1,2-b]pyridazin-3-yl)pyridin-2-yl)piperazin-1-yl)ethoxy)-3-methyl-2-oxo-2,3-dihydro-1H-benzo[d]imidazol-1-yl)piperidine-2,6-dione] belongs 7.00; to `O=C1CCC(N2C(=O)Cc3c(NCCN4CCN(c5cccc(-c6cnc7ccc(N8CCC[C@@H]8c8cccc(F)c8)nn67)n5)CC4)cccc32)C(=O)N1` (stereo partly drawn) [TR-236, 3-(4-((2-(4-(6-(6-((R)-2-(3-Fluorophenyl)pyrrolidin-1-yl)imidazo[1,2-b]pyridazin-3-yl)pyridin-2-yl)piperazin-1-yl)ethyl)amino)-2-oxoindolin-1-yl)piperidine-2,6-dione], 7.00; to `O=C1CCC(N2C(=O)c3ccc(N4CC(C(=O)N5CCN(c6cccc(-c7cnc8ccc(N9CCC[C@@H]9c9cccc(F)c9)nn78)n6)CC5)C4)cc3C2=O)C(=O)N1` (stereo partly drawn) [TR-211, 2-(2,6-Dioxopiperidin-3-yl)-5-(3-(4-(6-(6-((R)-2-(3-fluorophenyl)pyrrolidin-1-yl)imidazo[1,2-b]pyridazin-3-yl)pyridin-2-yl)piperazine-1-carbonyl)azetidin-1-yl)isoindoline-1,3-dione], 8.70.

Staying with this test, now noted: Homo sapiens, KM12, 72 h.
Consider `Cn1c(=O)n(C2CCC(=O)NC2=O)c2cccc(CCCCN3CCN(c4cccc(-c5cnc6ccc(N7CCC[C@@H]7c7cccc(F)c7)nn56)n4)CC3)c21` (stereo partly drawn) [TR-241, 3-(4-(4-(4-(6-(6-((R)-2-(3-fluorophenyl)pyrrolidin-1-yl)imidazo[1,2-b]pyridazin-3-yl)pyridin-2-yl)piperazin-1-yl)butyl)-3-methyl-2-oxo-2,3-dihydro-1H-benzo[d]imidazol-1-yl)piperidine-2,6-dione], for which the pIC50 is 8.05.
